In US10100022B2, “Sphingosine kinase inhibitors” (University of Virginia Patent Foundation, priority 2014, dated 2018):
Where a name gives a salt, the structure may show the parent alone.

How the values were obtained:
[1] = molecular target: T1, human sphingosine kinase type 1 (hSPHK1) (Homo sapiens, UniProt Q9NYA1); assay: Sphingosine kinase assay, recombinant human SPHK1 ([32P]S1P product, scintillation counting); format: biochemical; conditions: read-out: activity hSPHK1 (range estimate of KI)
T1 construct: made in house; host or cells: Sf9 insect cells (baculovirus)
T1 sequence (Q9NYA1 whole entry): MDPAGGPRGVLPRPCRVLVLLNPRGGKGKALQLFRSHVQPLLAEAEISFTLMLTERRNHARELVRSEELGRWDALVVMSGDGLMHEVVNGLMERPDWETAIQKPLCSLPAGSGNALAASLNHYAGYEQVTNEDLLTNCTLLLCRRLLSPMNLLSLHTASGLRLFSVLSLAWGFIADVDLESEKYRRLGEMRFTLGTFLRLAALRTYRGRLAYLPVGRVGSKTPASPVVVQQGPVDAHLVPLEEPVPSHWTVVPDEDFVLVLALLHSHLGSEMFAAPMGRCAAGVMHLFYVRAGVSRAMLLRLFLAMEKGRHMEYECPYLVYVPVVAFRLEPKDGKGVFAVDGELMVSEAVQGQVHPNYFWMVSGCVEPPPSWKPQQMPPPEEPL
Procedure, shortened: (§1)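 Activity read as [32P]S1P bound to cation exchange paper and quantified by scintillation counting, standard kinase protocol. Enzyme sources: human SPHK2 partially purified from baculovirus-infected Sf9 lysates; human SPHK1 as crude cleared Sf9 lysate.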

[2] = molecular target: T2, human sphingosine kinase type 2 (hSPHK2) (Homo sapiens, UniProt Q9NRA0); assay: Sphingosine kinase assay, recombinant human SPHK2 ([32P]S1P product, scintillation counting); format: biochemical; conditions: read-out: activity hSPHK2 (range estimate of KI)
T2 construct: purchased; host or cells: Sf9 insect cells (baculovirus)
T2 sequence (Q9NRA0 1-654): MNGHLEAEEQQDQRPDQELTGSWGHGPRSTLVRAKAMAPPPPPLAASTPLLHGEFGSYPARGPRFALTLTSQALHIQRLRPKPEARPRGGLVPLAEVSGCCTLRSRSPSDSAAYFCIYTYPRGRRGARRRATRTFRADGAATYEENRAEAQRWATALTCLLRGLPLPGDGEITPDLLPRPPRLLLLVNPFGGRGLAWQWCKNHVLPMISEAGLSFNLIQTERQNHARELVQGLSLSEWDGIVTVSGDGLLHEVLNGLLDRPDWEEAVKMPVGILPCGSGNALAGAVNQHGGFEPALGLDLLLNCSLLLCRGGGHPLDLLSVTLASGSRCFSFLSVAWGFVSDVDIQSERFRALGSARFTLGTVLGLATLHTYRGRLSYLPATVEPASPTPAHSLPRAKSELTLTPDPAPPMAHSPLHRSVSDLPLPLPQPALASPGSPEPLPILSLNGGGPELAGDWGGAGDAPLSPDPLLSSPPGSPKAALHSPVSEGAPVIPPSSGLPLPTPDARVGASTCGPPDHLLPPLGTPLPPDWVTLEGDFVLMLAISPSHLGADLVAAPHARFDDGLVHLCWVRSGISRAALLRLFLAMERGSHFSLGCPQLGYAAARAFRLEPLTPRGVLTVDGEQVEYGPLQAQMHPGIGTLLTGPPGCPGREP
Procedure, shortened: as §1

Row | Compound | Ki [1] [µM] | Ki [2] [µM]
1 | N=C(N)N1CCC[C@H]1c1nc(-c2ccc3cc(OCc4cccc(Br)c4)ccc3c2)no1 [Compound 58A, (S)-amino(2-(3-(6-((3-bromobenzyl)oxy)naphthalen-2-yl)-1,2,4-oxadiazol-5-yl)pyrrolidin-1-yl)methaniminium chloride] | > 10 | > 10
2 | CC(C)=CCC/C(C)=C/COc1ccc(-c2noc([C@@H]3CCCN3C(=N)N)n2)cc1C(F)(F)F [Compound 93A, (S,E)-(2-(3-(4-((3,7-dimethylocta-2,6-dien-1-yl)oxy)-3-(trifluoromethyl)phenyl)-1,2,4-oxadiazol-5-yl)pyrrolidin-1-yl)(13-iodanylidene)methanamine hydrochloride] | > 10 | > 10
3 | CCCCCCCCn1ccc2ccc(-c3noc([C@@H]4CCCN4C(=N)N)n3)cc21 [Compound 75A, (S)-amino(2-(3-(1-octyl-1H-indol-6-yl)-1,2,4-oxadiazol-5-yl)pyrrolidin-1-yl)methaniminium chloride] | > 10 | > 10
4 | CC(C)COc1ccc2cc(-c3noc([C@@H]4CCCN4C(=N)N)n3)ccc2c1 [Compound 14A, (S)-amino(2-(3-(6-isobutoxynaphthalen-2-yl)-1,2,4-oxadiazol-5-yl)pyrrolidin-1-yl)methaniminium chloride] | > 10 | > 10
5 | CCCCCCCCOc1ccc(-c2noc([C@@H]3CCCN3C(=N)N)n2)cc1F [Compound 11A, (S)-Amino(2-(3-(3-fluoro-4-(octyloxy)phenyl)-1,2,4-oxadiazol-5-yl)pyrrolidin-1-yl)methaniminium chloride] | > 10 | > 10
6 | N=C(N)N1CCC[C@H]1c1nc(-c2ccc(OC/C=C/c3ccccc3C(F)(F)F)c(C(F)(F)F)c2)no1 [Compound 89A, (S,E)-2-(3-(3-(trifluoromethyl)-4-((3-(2-(trifluoromethyl)phenyl)allyl)oxy)phenyl)-1,2,4-oxadiazol-5-yl)pyrrolidine-1-carboximidamide hydrochloride] | > 10 | > 10
7 | CCCCCCCCOc1ccc(-c2noc([C@@H]3CCCN3C(=N)N)n2)cc1Br [Compound 4B] | > 10 | < 1
8 | N=C(N)N1CC[C@H](O)[C@H]1c1nc(-c2ccc(OCCCc3ccc(C(F)(F)F)cc3)c(C(F)(F)F)c2)no1 [Compound 22A, amino((2S,3S)-3-hydroxy-2-(3-(3-(trifluoromethyl)-4-(3-(4-(trifluoromethyl)phenyl)propoxy)phenyl)-1,2,4-oxadiazol-5-yl)pyrrolidin-1-yl)methaniminium chloride] | 1 to 10 | < 1
9 | N=C(N)N1CCC[C@H]1c1nc(-c2ccc3cc(OCc4ccc(Br)cc4)ccc3c2)no1 [Compound 53A, (S)-amino(2-(3-(6-((4-bromobenzyl)oxy)naphthalen-2-yl)-1,2,4-oxadiazol-5-yl)pyrrolidin-1-yl)methaniminium chloride] | > 10 | 1 to 10
10 | Cc1ccc(COc2ccc3cc(-c4noc([C@@H]5CCCN5C(=N)N)n4)ccc3c2)cc1 [Compound 64A, (S)-amino(2-(3-(6-((4-methylbenzyl)oxy)naphthalen-2-yl)-1,2,4-oxadiazol-5-yl)pyrrolidin-1-yl)methaniminium chloride] | > 10 | > 10
11 | N=C(N)N1C[C@H](O)C[C@H]1c1nc(-c2ccc(OCCCc3ccc(C(F)(F)F)cc3)c(C(F)(F)F)c2)no1 [Compound 33A, amino((2S,4R)-4-hydroxy-2-(3-(3-(trifluoromethyl)-4-(3-(4-(trifluoromethyl)phenyl)propoxy)phenyl)-1,2,4-oxadiazol-5-yl)pyrrolidin-1-yl)methaniminium chloride] | > 10 | < 1
12 | CCCCCCCCOc1ccc(-c2noc([C@@H]3C[C@@H](O)CN3C(=N)N)n2)cc1C(F)(F)F [Compound 8A, amino((2S,4R)-4-hydroxy-2-(3-(4-(octyloxy)-3-(trifluoromethyl)phenyl)-1,2,4-oxadiazol-5-yl)pyrrolidin-1-yl)methaniminium chloride] | > 10 | < 1
13 | COc1ccc(CCc2ccc(-c3noc([C@@H]4[C@@H](O)CCN4C(=N)N)n3)cc2C(F)(F)F)cc1 [Compound 41A, (2S,3S)-3-hydroxy-2-(3-(4-(4-methoxyphenethyl)-3-(trifluoromethyl)phenyl)-1,2,4-oxadiazol-5-yl)pyrrolidine-1-carboximidamide hydrochloride] | 1 to 10 | < 1
14 | CCCCCCCCOc1ccc(-c2noc([C@@H]3CCCN3C(=N)N)n2)cc1C [Compound 6B] | > 10 | < 1
15 | CCCCCCCCOc1ccc(-c2noc([C@@H]3C[C@H](F)CN3C(=N)N)n2)cc1C(F)(F)F [Compound 48A, (2S,4S)-4-fluoro-2-(3-(4-(octyloxy)-3-(trifluoromethyl)phenyl)-1,2,4-oxadiazol-5-yl)pyrrolidine-1-carboximidamide 2,2,2-trifluoroacetate] | > 10 | 1 to 10
16 | CCCOc1ccc(CCc2ccc(-c3noc([C@@H]4CCCN4C(=N)N)n3)cc2C(F)(F)F)cc1 [Compound 94A, (S)-2-(3-(4-(4-propoxyphenethyl)-3-(trifluoromethyl)phenyl)-1,2,4-oxadiazol-5-yl)pyrrolidine-1-carboximidamide hydrochloride] | > 10 | < 1
17 | N=C(N)N1CC[C@H](O)[C@H]1c1nc(-c2ccc(CCC3CCCC3)c(C(F)(F)F)c2)no1 [Compound 43A, (2S,3S)-2-(3-(4-(2-cyclopentylethyl)-3-(trifluoromethyl)phenyl)-1,2,4-oxadiazol-5-yl)-3-hydroxypyrrolidine-1-carboximidamide hydrochloride] | 1 to 10 | < 1
18 | N=C(N)N1CCC[C@H]1c1nc(-c2ccc(CCC3CC3)c(C(F)(F)F)c2)no1 [Compound 38A, (S)-2-(3-(4-(2-cyclopropylethyl)-3-(trifluoromethyl)phenyl)-1,2,4-oxadiazol-5-yl)pyrrolidine-1-carboximidamide hydrochloride] | > 10 | 1 to 10
19 | CCCCCCCCOc1ccc(-c2noc([C@@H]3[C@H](O)CCN3C(=N)N)n2)cc1C(F)(F)F [Compound 10A, amino((2S,3R)-3-hydroxy-2-(3-(4-(octyloxy)-3-(trifluoromethyl)phenyl)-1,2,4-oxadiazol-5-yl)pyrrolidin-1-yl)methaniminium chloride] | > 10 | > 10
20 | CCCCCCCCOc1ccc(-c2noc([C@@H]3C[C@@H](F)CN3C(=N)N)n2)cc1C(F)(F)F [Compound 49A] | > 10 | < 1
21 | N=C(N)N1CC[C@H](O)[C@H]1c1nc(-c2ccc(OCCCC3CCCCC3)c(C(F)(F)F)c2)no1 [Compound 95A, amino((2S,3S)-2-(3-(4-(3-cyclohexylpropoxy)-3-(trifluoromethyl)phenyl)-1,2,4-oxadiazol-5-yl)-3-hydroxypyrrolidin-1-yl)methaniminium chloride] | 1 to 10 | < 1
22 | N=C(N)N1CCC[C@H]1c1nc(-c2ccc(CCc3ccc(C(F)(F)F)cc3)c(C(F)(F)F)c2)no1 [Compound 39A, (S)-2-(3-(3-(trifluoromethyl)-4-(4-(trifluoromethyl)phenethyl)phenyl)-1,2,4-oxadiazol-5-yl)pyrrolidine-1-carboximidamide hydrochloride] | > 10 | < 1
